Test results as given in PubChem BioAssay (NCI).
Several values for one entry are separate records, joined by “and”; a condition that tells them apart may be missing. Equal entries are not always repeated.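 How tested: cells in 96-well plates exposed to compound for 48 hours at five concentrations. GI50: concentration for 50% inhibition of growth. TGI: concentration producing complete growth inhibition.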

Key:
Test in all cases: DTP human tumour cell line panel, 48 h
[1] = test system: CAKI-1 renal
[2] = test system: DU-145 prostate
[3] = test system: HCT-15 colon
[4] = test system: LOX IMVI melanoma
[5] = test system: MDA-MB-231 breast
[6] = test system: NCI-H226 lung
[7] = test system: RPMI-8226 leukemia
[8] = test system: SK-MEL-2 melanoma
[9] = test system: SN12C renal
[10] = test system: TK-10 renal

Compound | GI50 [1] | TGI [1] | GI50 [2] [nM] | TGI [2] | GI50 [3] | TGI [3] | GI50 [4] | TGI [4] | GI50 [5] [nM] | TGI [5] | GI50 [6] | TGI [6] | GI50 [7] | TGI [7] | GI50 [8] | TGI [8] | GI50 [9] [nM] | TGI [9] | GI50 [10] | TGI [10]
COc1ccc(OC)c2c1[nH]c(=O)c1c3ccccc3cn21 | 1090 nM | 2390 nM | 1510 | 3030 nM | 693 nM | 2420 nM | 1400 nM | 2880 nM | 1400 | 2860 nM | 1610 nM | 3290 nM | 1070 nM | 3210 nM | 2000 nM | 4010 nM | 1230 | 2580 nM | 2010 nM | 3760 nM
CC[As](CC)SC[C@H](C)C(=O)N1CCC[C@H]1C(=O)O | < 18.1 nM | 64.8 nM | 29.7 | 104 nM | 27 nM | 194 nM | 45.8 nM | 102 nM | 68.6 | 301 nM | 201 nM | 614 nM | < 10 nM | 11.2 nM | 522 nM | 1770 nM | 63.7 | 218 nM | 113 nM | 396 nM
Cn1cc(C2=C(c3ccc(N)cc3)C(=O)NC2=O)c2ccccc21 | > 18900 nM | > 25000 nM | > 25000 | > 25000 nM | 11500 nM | > 25000 nM | 9880 nM | > 25000 nM | > 23000 | > 25000 nM | 16100 nM | > 25000 nM | > 23500 nM | > 25000 nM | 8380 nM | > 19000 nM | 16300 | > 25000 nM | > 25000 nM | > 25000 nM
O=C(Nc1ccc(Nc2ccncc2)cc1)c1ccc([N+](=O)[O-])cc1 | 6020 nM | 19300 nM | 8870 | 42000 nM | 4950 nM | > 40600 nM | 3720 nM | 14700 nM | 3440 | 14900 nM | 12100 nM | 29700 nM | 2500 nM | 17000 nM | 9640 nM | 28900 nM | 2750 | 8790 nM | 11200 nM | 31300 nM
COc1ccccc1/C=N\N/C(N)=N\N=C\c1ccccc1OC | 207 nM | 4110 nM | 386 | 2730 nM | 465 nM | > 37500 nM | 2400 nM | > 39500 nM | 2580 | > 60300 nM | 8310 nM | > 47000 nM | 281 nM | 806 nM | 527 nM | 10300 nM | 1700 | > 46800 nM | 524 nM | 8890 nM
COc1cccc2c1C(=O)c1c(O)c3c(c(O)c1C2=O)C[C@@](O)(C(=O)CO)C[C@@H]3OC1CC(N)CC(C)O1 (some centres undefined) | 9.36 nM and 8.12 nM and 26.3 nM | 119 nM and 377 nM |  | 175 nM and 1220 nM | 183 nM and 125 nM | 3570 nM and 2530 nM | 29.5 nM and 23.1 nM | 262 nM and 120 nM | 232 | 675 nM and 780 nM | 9.87 nM and 72.3 nM and 43.5 nM | 282 nM and 132 nM | 17.8 nM and 70.4 nM | 547 nM and 1720 nM | 125 nM and 76.9 nM | 315 nM and 220 nM | 23.2 | 1430 nM and 1070 nM | 396 nM and 148 nM | 1550 nM and 3450 nM
